Data: patent US7629135B2, “Toll-like receptor agonists and antagonists and methods of use thereof” (The Board of Trustees of the University of Illinois, priority 2006, dated 2009)

Columns and labels:
[1] = biological target: T1, TLR2:Fc fusion protein (Homo sapiens, UniProt O60603); assay: SAA-TLR2 interaction, ELISA-like binding assay; details: 0.0625 to 8 μg/ml ligand coated, 2 μg/ml TLR2:Fc
T1 construct: measured in an ELISA-like assay using a TLR2 extracellular domain:Fc fragment fusion protein; made in house; host or cells: CHO cells (pFuse-Fc vector, InvivoGen), purified from culture supernatant on protein A
T1 sequence (O60603 21-588 limits assumed): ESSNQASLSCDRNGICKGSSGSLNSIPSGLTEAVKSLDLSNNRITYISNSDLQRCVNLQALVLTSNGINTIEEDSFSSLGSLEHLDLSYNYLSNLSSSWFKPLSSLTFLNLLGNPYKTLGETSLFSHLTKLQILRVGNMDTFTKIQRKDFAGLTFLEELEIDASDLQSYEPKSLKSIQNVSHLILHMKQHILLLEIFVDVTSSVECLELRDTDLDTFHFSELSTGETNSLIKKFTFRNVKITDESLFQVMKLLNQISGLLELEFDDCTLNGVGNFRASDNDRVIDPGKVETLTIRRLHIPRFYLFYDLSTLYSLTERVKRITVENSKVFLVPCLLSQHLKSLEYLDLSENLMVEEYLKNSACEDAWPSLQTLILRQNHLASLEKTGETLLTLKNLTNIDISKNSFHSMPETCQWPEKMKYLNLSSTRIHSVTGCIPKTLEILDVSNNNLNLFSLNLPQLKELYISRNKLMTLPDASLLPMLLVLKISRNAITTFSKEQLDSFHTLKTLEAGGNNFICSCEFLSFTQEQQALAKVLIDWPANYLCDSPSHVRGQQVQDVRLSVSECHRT
From the text: Another example of a method for screening antagonists that disrupt the SAA/TLR2 interaction involves a binding assay that includes a TLR2 ectodomain (extracellular domain) fused to an Fc fragment of immunoglobulin (TLR2:Fc), such as the assay used in FIG. 9B. This assay is typically used as a follow-up or secondary assay to that assay described above. In other words, any compounds collected from the assay described above are subjected to the TLR2:Fc-based binding assay to confirm that the antagonistic effect is on the disruption of SAA-TLR2 binding. This method is generally carried out as follows and is also described in the Examples. A TLR2:Fc fusion protein is generated such that the N-terminal 588 amino acids of human TLR2 are fused in frame to the Fc portion of mouse IgG2a. The cDNA encoding for the resulting chimeric protein is cloned in pFuse-Fc vector (InvivoGen), and stably transfected into CHO cells. […] Absorbance at 450 nm is measured on a SpectraMax 340 plate reader (Molecular Devices).
Assays for SAA-TLR2 interaction: The TL2:Fc fusion protein was generated such that the N-terminal 588 amino acids of human TLR2 protein were fused in frame with the Fc portion of mouse IgG2a. […] Absorbance at 450 nm was measured on a SpectraMax 340 plate reader (Molecular Devices). […]

[2] = tested on: TLR2-HeLa cells; assay: MAP kinase phosphorylation and IκBα degradation in TLR2-HeLa cells (Western blotting); format: cell-based, human; details: mock-transfected HeLa cells, 10 min; SAA 1 μM, Pam3CSK4 1 μg/ml
Procedure: FIG. 8 is a series of protein gels and corresponding Western blotting graphs showing that SAA-induced TLR2-dependent signaling in transfected cells. Serum-starved TLR2-HeLa and mock-transfected HeLa cells were stimulated with SAA (1 μM) or Pam3CSK4 (1 μg/ml) for the indicated time. The phosphorylation level of ERK1/2 (A), p38 (B) and JNK (C) was detected by Western blotting using antibodies recognizing the phosphorylated forms of the MAP kinases (blots). (D) The level of cytoplasmic IκB ? was detected by Western blotting using an anti-IκB ? antibody and the β-actin levels in the corresponding samples were shown as loading controls. […] A representative set of data, from 3 repeating experiments, is presented.

Substance: Pam3CSK4 [reference compound]
- binding to TLR2:Fc fusion protein [1]: directly bind to the ectodomain
- ERK1/2 phosphorylation in mock-transfected cells [2]: not
